Series [1] concerns BT474, ZR-75-1, BT549, HCC1937, HS578T, MCF-7, and T47D. The experiment in a line: Inhibition rate on seven breast cancer cells. Format: cell-based. As to conditions: various breast cancer cells, FIG. 11C.
The next series has as its system MDA-MB-231. The experiment in a line: Proliferation of MDA-MB-231 breast cancer cells. The following applies: Homo sapiens. In kind it is cell-based.
For a further series, the system named is MDA-MB-231 cells. The experiment in a line: Immunoblot of parp (apoptosis) in MDA-MB-231 cells. In kind it is cell-based. As to conditions: 4 μM and TNFα (20 ng/ml).
The next series has as its system mTOR signaling pathway. Kind of series: Immunoblot of p-mTOR, p-P70S6K, p-S6 in TNFα-treated starved MDA-MB-231 cells. Format: cell-based. The following applies: MDA-MB-231, serum-free 10 h; 2 μM and TNFα (20 ng/ml).
Another series concerns the target Nur77-LBD (Homo sapiens, UniProt P22736). Kind of series: Surface plasmon resonance (Biacore T200) binding to Nur77-LBD.
The subject of a further series is MCF-7. The experiment in a line: Proliferation of MCF-7 breast cancer cells. In kind it is cell-based. The following applies: Homo sapiens, read-out: IC50 for inhibiting the proliferation.
For another series, the system named is wild-type Hela cells. Kind of series: Proliferation of wild-type Hela cells. The following applies: Homo sapiens. Format: cell-based.
In a further series the test system is T47D. The experiment in a line: Proliferation of T47D breast cancer cells. Format: cell-based. As to conditions: Homo sapiens, 72 h, read-out: IC50 for inhibiting the proliferation.
The test system of the next series is MDA-MB-468. The experiment in a line: Proliferation of MDA-MB-468 breast cancer cells. Format: cell-based. The following applies: Homo sapiens, MDA-MB-468, 72 h; read-out: IC50 for inhibiting the proliferation.
Series [2] is described as follows: Acute toxicity model mice, histopathology. Format: in vivo. The text has this:
The tissue morphologies of the heart, liver, small intestine, white fat and kidney were observed by Histopathological method.

The subject of series [3] is Nur77 knocked-out Hela cells. The experiment in a line: Proliferation of Nur77 knocked-out Hela cells. As to conditions: Homo sapiens. In kind it is cell-based.
In a further series the test system is SKBR3. The experiment in a line: Proliferation of SKBR3 breast cancer cells. Format: cell-based. The following applies: Homo sapiens, SK-BR-3; SKBR3, 72 h; read-out: IC50 for inhibiting the proliferation.
The next series relates to BT549. The experiment in a line: Proliferation of BT549 breast cancer cells. Format: cell-based. As to conditions: Homo sapiens, BT-549; BT549, 72 h; read-out: IC50 for inhibiting the proliferation.
For series [4], the system named is IκBα and phosphorylated IKKα/β. Kind of series: Immunoblot of IκBα and phosphorylated IKKα/β in TNFα-treated HepG2 cells. Format: cell-based. As to conditions: TNFα 20 ng/mL 30 minutes. The text has this: IκBα and phosphorylated IKKα/β in the cells were then detected by WB.
In addition, HepG2 cells were also applied in the experiment. […] IκBα in the cells was then detected by WB.

[5] abbreviates: MDA-MB-231, FIG. 11B, read-out: IC50 for the inhibition of proliferation.
The mark [6] stands for this setting: Biacore T200, read-out: dissociation constant (Kd) to Nur77-LBD.
The mark [7] stands for this setting: single intragastric injection 200 mg/kg.
The mark [8] stands for this setting: single intraperitoneal injection 20 mg/kg.

Structures are written as SMILES. Like-named read-outs stand apart in the source and are kept apart here.

Chain of Nur77-LBD (P22736 360-595 limits assumed): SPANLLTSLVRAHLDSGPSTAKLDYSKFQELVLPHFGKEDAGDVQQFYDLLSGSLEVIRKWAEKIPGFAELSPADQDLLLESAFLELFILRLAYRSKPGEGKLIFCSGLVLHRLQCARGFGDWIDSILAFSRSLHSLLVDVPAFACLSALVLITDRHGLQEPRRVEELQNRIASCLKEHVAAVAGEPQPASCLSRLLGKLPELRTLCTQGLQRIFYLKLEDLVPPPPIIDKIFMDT

On to `Cc1c(O)c(O)cc2c1CC=C1[C@@]2(C)CC[C@@]2(C)[C@@H]3C[C@](C)(C(=O)O)CC[C@]3(C)CC[C@]12C` [XS0419], for which the “inhibitory effects on proliferation compared with YXY101” value in [1] is “close or even stronger than that of YXY101”. Moreover, the IC50 in the series with MDA-MB-231 (setting [5]) came out at 1.27 µM. Also, in the series on MDA-MB-231 cells, the “PARP cleavage in comparison with YXY101” value is given as “can more significantly induce PARP cleavage”. The “P-mTOR, P-p70S6K, and P—S6 in comparison with YXY101” value (“P-mTOR, P-p70S6K, and P—S6” for short) in the series with mTOR signaling pathway is “can more significantly reduce P-mTOR, P-p70S6K, and P—S6”. On Nur77-LBD, this compound had a Kd of 0.404 µM.
Turning to `Cc1c(O)c(O)cc2c1CCC1[C@@]2(C)CC[C@@]2(C)[C@@H]3C[C@](C)(C(=O)O)CC[C@]3(C)CC[C@]12C` (stereo partly shown) [XS0335], the IC50 in the series with MDA-MB-231 (setting [5]) came out at 1.88 µM. In addition, the “P-mTOR, P-p70S6K, and P—S6” value with mTOR signaling pathway is “can more significantly reduce P-mTOR, P-p70S6K, and P—S6”.
Turning to `CCOC(=O)OC1=C(C)C2=CC=C3[C@@](C)(CC[C@@]4(C)[C@@H]5C[C@](C)(C(=O)O)CC[C@]5(C)CC[C@]34C)C2=CC1=O` [XS0394], the “P-mTOR, P-p70S6K, and P—S6” value in the series with mTOR signaling pathway is “can more significantly reduce P-mTOR, P-p70S6K, and P—S6”. On Nur77-LBD (setting [6]), the equilibrium dissociation constant (Kd) amounted to 1.26 µM.
As to `CCCC(=O)OC1=C(C)C2=CC=C3[C@@](C)(CC[C@@]4(C)[C@@H]5C[C@](C)(C(=O)OC)CC[C@]5(C)CC[C@]34C)C2=CC1=O` [XS0488], the “inhibitory effects on proliferation compared with YXY101” value in [1] was “close or even stronger than that of YXY101”. For the same compound, in the series on MDA-MB-231 (setting [5]), the IC50 is 1.9 µM. Moreover, the Kd on Nur77-LBD (setting [6]) is 1.28 µM.
For the compound `CC1=C(O)C(=O)C=C2C1=CC=C1[C@@]2(C)CC[C@@]2(C)[C@@H]3C[C@](C)(C(=O)O)CC[C@]3(C)CC[C@]12C` [YXY101, Celastrol], the IC50 was found to be 1.2 µM in the series on MDA-MB-231 (MDA-MB-231, 72 h, read-out: IC50 for inhibiting the proliferation); 11.5 µM in the series with MCF-7 (MCF7, 72 h); 1.19 µM in the series on wild-type Hela cells; 74.5 µM in the series on T47D; 0.187 µM in the series on MDA-MB-468; 58.2 µM in series [3]. Besides, the IC50 with SKBR3 amounted to 2.65 µM; with BT549, 0.245 µM. Moreover, the adipose tissue morphology result in [2] (setting [7]) is “the adipose tissue cells were arranged disorderly and some of the fibers were broken”; in series [2] (setting [8]), “the adipose tissue cells were arranged disorderly and had many inflammatory cell infiltration”. For the same compound, the heart tissue morphology result in series [2] (setting [7]) and in series [2] (setting [8]) was “arranged disorderly” throughout. Also, the liver tissue morphology entry was “the lobuli hepatis boundaries were blurred, the cytoplasm was reduced, and most of the hepatocytes died” in series [2] (setting [7]); “the lobuli hepatis had substantially obvious boundaries, the hepatocytes were plump and had normal morphology” in series [2] (setting [8]). Moreover, the “small intestine tissue morphology” value in series [2] (setting [7]) was “the intestinal tissue was swollen apparently, the cell death increases, the inflammatory reaction was obvious, the intestinal villi were arranged disorderly”. For the same compound, in series [2] (setting [8]), the kidney tissue morphology entry is “the kidney tissue had blurred glomerulus boundaries and many inflammatory cell infiltration, and the arrangement was not neat”.
`COc1ccc(NC(=O)[C@]2(C)CC[C@]3(C)CC[C@]4(C)C5=CC=C6C(=CC(=O)C(O)=C6C)[C@]5(C)CC[C@@]4(C)[C@@H]3C2)cc1` [XS0287]: the “TNFα-induced degradation of IκBα” value in series [4] is “capable of inhibiting TNFα-induced degradation of IκBα”.
`Cc1c(O)c(O)cc2c1CC=C1[C@@]2(C)CC[C@@]2(C)[C@@H]3C[C@](C)(CO)CC[C@]3(C)CC[C@]12C` [XS0503]: the IC50 was determined as 1.19 µM with MDA-MB-231 (MDA-MB-231, 24 h, read-out: IC50 for inhibiting the proliferation) and 2.65 µM in the series on MCF-7 (MCF7, MCF-7, 24 h).
As for `CC1=C(O)C(=O)C=C2C1=CC=C1[C@@]2(C)CC[C@@]2(C)[C@@H]3C[C@](C)(C(=O)OCc4ccccc4)CC[C@]3(C)CC[C@]12C` [XS0285], the “inhibitory effects on proliferation compared with YXY101” value in series [1] is recorded as “close or even stronger than that of YXY101”.
For the compound `[2H]C1C=C2[C@@](C)(CC[C@@]3(C)[C@@H]4C[C@](C)(C(=O)O)CC[C@]4(C)CC[C@]23C)c2cc(O)c(O)c(C)c21` (stereo partly shown) [XS0474], the IC50 in the series with MDA-MB-231 (setting [5]) amounted to 2.93 µM. Also, the “P-mTOR, P-p70S6K, and P—S6” value with mTOR signaling pathway is “can more significantly reduce P-mTOR, P-p70S6K, and P—S6”. This compound also came in with an equilibrium dissociation constant (Kd) on Nur77-LBD of 2.6 µM.
In the case of `CC1=C(O)C(=O)C=C2C1=CC=C1[C@@]2(C)CC[C@@]2(C)[C@@H]3C[C@](C)(C(=O)OP(=O)(OC(C)C)OC(C)C)CC[C@]3(C)CC[C@]12C` [XS0492], in the series on MDA-MB-231 cells, the “PARP cleavage in comparison with YXY101” value is “can more significantly induce PARP cleavage”. Besides, in the series on mTOR signaling pathway, the “P-mTOR, P-p70S6K, and P—S6” value was “can more significantly reduce P-mTOR, P-p70S6K, and P—S6”. In addition, at Nur77-LBD (setting [6]), the Kd was 1.3 µM.
In the case of `COP(=O)(OC)OC(=O)[C@]1(C)CC[C@]2(C)CC[C@]3(C)C4=CC=C5C(=CC(=O)C(O)=C5C)[C@]4(C)CC[C@@]3(C)[C@@H]2C1` [XS0486], the “P-mTOR, P-p70S6K, and P—S6” value in the series on mTOR signaling pathway was “can more significantly reduce P-mTOR, P-p70S6K, and P—S6”.
As to `COC(=O)[C@]1(C)CC[C@]2(C)CC[C@]3(C)C4=CC=C5C(=CC(=O)C(O)=C5C)[C@]4(C)CC[C@@]3(C)[C@@H]2C1` [XS0077], the IC50 with MDA-MB-231 (MDA-MB-231, read-out: IC50 for the inhibition of proliferation) is 1.84 µM. Also, the “PARP cleavage in comparison with YXY101” value in the series with MDA-MB-231 cells is listed as “can more significantly induce PARP cleavage”.
As to `CCOP(=O)(OCC)OC(=O)[C@]1(C)CC[C@]2(C)CC[C@]3(C)C4=CC=C5C(=CC(=O)C(O)=C5C)[C@]4(C)CC[C@@]3(C)[C@@H]2C1` [XS0491], the “P-mTOR, P-p70S6K, and P—S6” value in the series with mTOR signaling pathway was “can more significantly reduce P-mTOR, P-p70S6K, and P—S6”. For the same compound, binding on Nur77-LBD was put at a Kd of 0.336 µM.
Turning to `COC(=O)[C@]1(C)CC[C@]2(C)CC[C@]3(C)C4=CC(S(=O)(=O)[O-])c5c(cc(O)c(O)c5C)[C@]4(C)CC[C@@]3(C)[C@@H]2C1.[Na+]` (stereo partly shown) [XS0508], the “PARP cleavage in comparison with YXY101” value in the series with MDA-MB-231 cells is listed as “can more significantly induce PARP cleavage”.
With `CCOC(=O)COC(=O)[C@]1(C)CC[C@]2(C)CC[C@]3(C)C4=CC=C5C(=CC(=O)C(O)=C5C)[C@]4(C)CC[C@@]3(C)[C@@H]2C1` [XS0418], in series [1], the “inhibitory effects on proliferation compared with YXY101” value is recorded as “close or even stronger than that of YXY101”. Moreover, in the series on MDA-MB-231 cells, the “PARP cleavage in comparison with YXY101” value is recorded as “can more significantly induce PARP cleavage”. The “P-mTOR, P-p70S6K, and P—S6” value in the series with mTOR signaling pathway is “can more significantly reduce P-mTOR, P-p70S6K, and P—S6”. The Kd at Nur77-LBD (setting [6]) came out at 3.67 µM.
`CCOC(=O)[C@]1(C)CC[C@]2(C)CC[C@]3(C)C4=CC=C5C(=CC(=O)C(O)=C5C)[C@]4(C)CC[C@@]3(C)[C@@H]2C1` [XS0462]: the “inhibitory effects on proliferation compared with YXY101” value in series [1] is “close or even stronger than that of YXY101”.

The values are drawn from patent publication US10808005B2, “Ligand for orphan nuclear receptor Nur77 and uses thereof” (IXMEDICINE (XIAMEN) BIOLOGICAL TECHNOLOGY COMPANY LIMITED, priority 2016, dated 2020).
